The text below walks through data of patent US11549123B2, “Plant EPSP synthases and methods of use” (PIONEER HI-BRED INTERNATIONAL, INC., priority 2015, dated 2023).

The target of test [1] is Zea mays EPSPS variant 4R (Zea mays, UniProt O24566, A3R). In words: EPSPS reaction rate with or without 10 uM glyphosate, 4R. Further: 50 µM PEP and S3P. It counts as biochemical. The note with it: pH 7; read-out: Reaction rate with 10 μM glyph, % no glyph.
Test [2] addresses T1, Zea mays EPSPS variant Zm-T103A (Zea mays, UniProt O24566, T102A).
T1 construct: native maize plus T103A; E. coli BL21(DE3), Ni-NTA purified
T1 sequence (O24566 with tags, fused parts or gaps T102A): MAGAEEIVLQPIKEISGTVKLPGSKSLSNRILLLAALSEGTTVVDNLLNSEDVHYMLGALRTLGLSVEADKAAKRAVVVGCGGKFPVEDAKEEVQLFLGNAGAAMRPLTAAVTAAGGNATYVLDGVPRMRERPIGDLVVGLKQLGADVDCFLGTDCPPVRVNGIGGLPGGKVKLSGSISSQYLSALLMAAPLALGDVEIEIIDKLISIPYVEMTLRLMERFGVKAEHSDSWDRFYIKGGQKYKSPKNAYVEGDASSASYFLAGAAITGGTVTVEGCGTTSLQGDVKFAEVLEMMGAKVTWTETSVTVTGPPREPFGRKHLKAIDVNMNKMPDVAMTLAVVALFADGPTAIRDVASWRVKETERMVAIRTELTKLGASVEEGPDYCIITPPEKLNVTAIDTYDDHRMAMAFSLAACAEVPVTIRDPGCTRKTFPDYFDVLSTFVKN
The test is described as follows: Rapid two-rate method for (kcat/KM)*KI, Zm-T103A. It counts as biochemical. The note with it: [E] 0.07 uM, [Gly] 1000 uM. From the text:
There are several practical considerations for accurately estimating (kcat/KM)*KI with the rapid method. […] 2) The inhibitor concentration must be adjusted so as to obtain a degree of inhibition that minimally amplifies the error in the term v0-vi in Equation 3. If inhibition is too little, v0-vi will be small, and the error in the multiplier vi×v0/(v0-vi) will be large. […] 3) Substrate concentration should be set at the approximate KM of the parental variant(s), subject to the sensitivity of the assay. High substrate concentration obscures sensitivity to the inhibitor and reduces stringency for capturing improvements in KM. Depending on the necessity for speed, there exists opportunity for customizing enzyme and inhibitor concentrations. […] The rapid method was repeated for those and obtained data that correlated better with data obtained by substrate saturation analysis. For screening purposes however, that correlation step is not necessary. Conditions can be set so that variants with a pre-determined minimal fitness level are accurately quantified.
In Table 15, parameters above the heavy line for the rapid method were obtained under standard conditions. For variants shown below the heavy line, the rapid analysis was repeated with enzyme or glyphosate concentrations adjusted as needed to generate sufficient signal within the limits for linear initial rates.

Test [3] has as its system Glycine max (93Y21) cotyledon hairy roots. The test is described as follows: Hairy root growth of transformed soybean cotyledons on 25 uM glyphosate. Type of test: cell-based.
In test [4] the target is T2, Zea mays EPSPS, wild-type, SEQ ID NO:1 (Zea mays, UniProt O24566).
T2 construct: expressed in E. coli, purified
In words: EPSPS reaction rate with or without 10 uM glyphosate, native maize. Further: 50 µM PEP and S3P. Type of test: biochemical. As to conditions: pH 7; read-out: Reaction rate with 10 μM glyph, % no glyph.

Another test addresses Bacterial EPSPS (CP4) (Agrobacterium sp., UniProt Q9R4E4). The test is described as follows: Substrate saturation kinetic analysis with glyphosate, bacterial EPSPS (CP4).
For test [5], the target named is Zea mays EPSPS variant 224R 249V (Zea mays, UniProt O24566, K223R/Y248V). The test is described as follows: EPSPS reaction rate with or without 10 uM glyphosate, 224R 249V. Further: 50 µM PEP and S3P. It counts as biochemical. As to conditions: pH 7; read-out: Reaction rate with 10 μM glyph, % no glyph.
The target of test [6] is Zea mays EPSPS variant 868-H6 (A2R, A4W, A72Q, K84R, L98C, G102A, I208L, T279A, E302S, T361S, E391G, D402G, A416G, V438R, T441Q), SEQ ID NO:5 (Zea mays, UniProt O24566, A1R/A3W/A415G/A71Q/D401G/E301S/E390G/G101A/I207L/K83R/L97C/T278A/T360S/T440Q/V437R). The test is described as follows: EPSPS substrate saturation kinetics, 868-H6. It counts as biochemical. How it is done: EPSPS activity was determined by quantifying the phosphate generated from the EPSPS reaction. Release of inorganic phosphate was coupled to reaction with 2-amino-6-mercapto-7-methylpurine ribonucleoside, catalyzed by purine-nucleoside phosphorylase (M R Webb, Proc. Natl. Acad. Sci. 89:4884-4887, 1992). The absorbance change that occurs was monitored at 360 nm, where the extinction is 11,200 M^−1 cm^−1, with a Spectramax plate reader (Molecular Devices). To determine kinetic parameters, the varied substrate was present at seven concentrations (the eighth being the blank, containing no substrate) ranging from 4 to 400 uM and the unvaried substrate present at saturation. […] Reactions were monitored with a Spectramax plate reader. […] KI was then calculated from the following form of the Michaelis-Menten equation for competitive inhibition: KI=KM[I]/(KM app−KM) KM approximates the dissociation constant of the enzyme-substrate complex while kcat is the rate of conversion of substrate to product when the substrate concentration is saturating. kcat/KM is a widely accepted parameter for catalytic efficiency when substrate concentration is low (˜KM). […] The parameter kcat/KM×KI is used to quantify both catalytic efficiency and insensitivity and thus the overall fitness of the enzyme. […]

Sequence of Bacterial EPSPS (CP4) (Q9R4E4 whole entry): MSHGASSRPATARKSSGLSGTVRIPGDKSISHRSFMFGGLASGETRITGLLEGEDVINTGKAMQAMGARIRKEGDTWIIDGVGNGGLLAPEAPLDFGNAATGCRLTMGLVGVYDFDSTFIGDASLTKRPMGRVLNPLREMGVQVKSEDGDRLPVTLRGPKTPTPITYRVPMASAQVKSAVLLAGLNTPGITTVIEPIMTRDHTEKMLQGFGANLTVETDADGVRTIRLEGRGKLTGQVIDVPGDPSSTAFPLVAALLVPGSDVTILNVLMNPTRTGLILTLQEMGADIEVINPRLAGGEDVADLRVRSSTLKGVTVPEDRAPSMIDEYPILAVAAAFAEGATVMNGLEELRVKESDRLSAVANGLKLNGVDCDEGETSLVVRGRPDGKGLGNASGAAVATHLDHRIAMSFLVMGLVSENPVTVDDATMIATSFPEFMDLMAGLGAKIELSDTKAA
T2 sequence (O24566 entry or part of it): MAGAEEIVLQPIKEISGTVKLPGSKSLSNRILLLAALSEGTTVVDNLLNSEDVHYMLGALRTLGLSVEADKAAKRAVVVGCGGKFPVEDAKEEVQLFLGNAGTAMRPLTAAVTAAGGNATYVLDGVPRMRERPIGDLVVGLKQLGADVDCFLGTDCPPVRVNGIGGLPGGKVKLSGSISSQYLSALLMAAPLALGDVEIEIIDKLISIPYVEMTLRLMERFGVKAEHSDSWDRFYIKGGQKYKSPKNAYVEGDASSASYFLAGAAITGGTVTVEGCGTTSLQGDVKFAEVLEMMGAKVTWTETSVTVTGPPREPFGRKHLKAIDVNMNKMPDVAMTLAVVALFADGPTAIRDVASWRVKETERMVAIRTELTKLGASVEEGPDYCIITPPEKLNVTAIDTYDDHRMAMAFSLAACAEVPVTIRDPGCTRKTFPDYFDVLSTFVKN
Sequence of Zea mays EPSPS variant 4R (O24566 entry or part of it A3R): as the sequence (O24566 entry or part of it) above, with A4R counted along it
Sequence of Zea mays EPSPS variant 224R 249V (O24566 entry or part of it K223R/Y248V): as the sequence (O24566 entry or part of it) above, with K224R, Y249V counted along it
Excerpt for Bacterial EPSPS (CP4): There are several practical considerations for accurately estimating (kcat/KM)*KI with the rapid method. […] If inhibition is too little, v0-vi will be small, and the error in the multiplier vi×v0/(v0-vi) will be large. […] High substrate concentration obscures sensitivity to the inhibitor and reduces stringency for capturing improvements in KM.

Turning to `O=C(O)CNCP(=O)(O)O` [glyphosate, N-phosphonomethylglycine], the activity at 10 µM in test [1] amounted to 7.38%; in test [4] it was 9.49%; in test [5], 3.09%. The “(kcat/KM)*KI” value is reported as 543 in test [2]; 108900 at Bacterial EPSPS (CP4) (substrate saturation, Bacterial EPSPS / CP4); 10070 in test [6] (PEP as substrate, glyphosate as inhibitor). Further, the hairy root formation result is recorded as “Hairy roots were not formed” in test [3] (EPSPS driven by weaker promoters (UBQ3 and native), with glyphosate); “generated hairy roots” in test [3] (UBQ10 promoter and H6, C1 and C2 variants, 25 uM glyphosate). The root growth result in test [3] (native EPSPS (UBQ10 promoter), 25 uM glyphosate) was “no root growth”. Further, the results for the Ki (on Bacterial EPSPS (CP4); in test [6]) were 1410 µM and 629 µM, respectively.
